Measured values from ChEMBL document CHEMBL2040811, “Synthesis and biological evaluation of new homocamptothecin analogs” (Eur J Med Chem, 2012).
The source made the active and inactive calls. The calls are words filed in the database; no cut-off is given here.

Key:
HCT-116 = test: Cytotoxicity against human HCT116 after 72 hrs by SRB assay; assay type: functional, cell-based; conditions: HCT-116, 72 h
A549 = test: Cytotoxicity against human A549 after 72 hrs by SRB assay; assay type: functional, cell-based; conditions: A549, 72 h
[1] = target: T1, DNA topoisomerase 1 (Homo sapiens) (UniProt P11387); test: Inhibition of topo 1-mediated relaxation of supercoiled pBR322 at 10 to 100 uM after 30 mins using ethidium bromide by agarose-gel electrophoresis
T1 sequence (whole entry): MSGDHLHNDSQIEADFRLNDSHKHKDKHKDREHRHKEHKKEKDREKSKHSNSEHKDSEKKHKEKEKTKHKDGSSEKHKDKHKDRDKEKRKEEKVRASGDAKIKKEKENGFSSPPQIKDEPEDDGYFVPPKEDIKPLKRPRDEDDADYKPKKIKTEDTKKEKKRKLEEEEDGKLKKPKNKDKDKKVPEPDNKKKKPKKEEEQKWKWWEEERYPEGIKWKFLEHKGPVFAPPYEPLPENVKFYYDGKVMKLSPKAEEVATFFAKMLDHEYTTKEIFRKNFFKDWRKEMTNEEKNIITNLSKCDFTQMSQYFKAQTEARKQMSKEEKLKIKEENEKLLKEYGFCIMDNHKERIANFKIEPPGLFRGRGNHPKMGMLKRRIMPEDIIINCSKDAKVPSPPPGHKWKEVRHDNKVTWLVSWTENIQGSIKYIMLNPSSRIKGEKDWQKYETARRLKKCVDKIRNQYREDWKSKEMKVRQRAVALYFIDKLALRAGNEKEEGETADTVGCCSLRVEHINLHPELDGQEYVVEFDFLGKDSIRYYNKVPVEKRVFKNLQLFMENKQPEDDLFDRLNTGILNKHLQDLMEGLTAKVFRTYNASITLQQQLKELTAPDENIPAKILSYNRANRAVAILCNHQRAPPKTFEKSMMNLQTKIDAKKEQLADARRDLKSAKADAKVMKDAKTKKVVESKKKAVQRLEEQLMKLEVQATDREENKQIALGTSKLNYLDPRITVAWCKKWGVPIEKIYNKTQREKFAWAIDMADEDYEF

[2] = Stability of the compound assessed as retention of lactone group in phosphate buffer at pH 7 after 8 hrs by HPLC analysis; assay type: physicochemical; conditions: for Stability: buffer, pH 7, 8 h; for remaining at 8 h: phosphate buffer, pH 7, read-out: Stability
[3] = Stability of the compound assessed as retention of lactone group at pH 7 after 8 hrs in presence of human serum albumin by HPLC analysis; assay type: ADME; conditions: for Stability: buffer, pH 7, 8 h; for remaining at 8 h: human serum albumin solution, pH 7, read-out: Stability

Row | Structure (SMILES) | IC50 (HCT-116) [nM] | IC50 (A549) [nM] | inhibition [1] | Stability [2] | Stability [3] | remaining at 8 h [2] [%] | remaining at 8 h [3] [%]
1 | CC[C@]1(O)c2cc3n(c(=O)c2COC(=O)[C@@H]1O)Cc1cc2cc4c(cc2nc1-3)OCCO4 | 3.4 | 2.9 | Active | – | – | – | –
2 | CC[C@]1(O)c2cc3n(c(=O)c2COC(=O)[C@@H]1O)Cc1cc2cc4c(cc2nc1-3)OCO4 | 3.1 | 3.1 | Active | – | – | – | –
3 | CC[C@@]1(O)C(=O)OCc2c1cc1n(c2=O)Cc2cc3cc(O)ccc3nc2-1 [HYDROXYCAMPTOTHECIN] | 31.2 | 33.6 | Active | – | – | – | –
4 | CC[C@]1(O)c2cc3n(c(=O)c2COC(=O)[C@@H]1OC(C)=O)Cc1cc2cc4c(cc2nc1-3)OCO4 | 2.1 | 1.2 | Active | Stable | Stable | – | –
5 | CC[C@]1(O)c2cc3n(c(=O)c2COC(=O)[C@@H]1O)Cc1cc2cc(OC)ccc2nc1-3 | 10.6 | 4.8 | Active | – | – | – | –
6 | CC[C@@]1(O)C(=O)OCc2c1cc1n(c2=O)Cc2cc3ccccc3nc2-1 [CAMPTOTHECIN] | 22.9 | 33.8 | – | – | – | < 40 | 20
7 | CC[C@]1(O)c2cc3n(c(=O)c2COC(=O)[C@@H]1OC(C)=O)Cc1cc2ccccc2nc1-3 | 14.2 | 49.2 | Active | Stable | Stable | – | –
8 | CC[C@]1(O)c2cc3n(c(=O)c2COC(=O)[C@@H]1OC(C)=O)Cc1cc2cc4c(cc2nc1-3)OCCO4 | 4.9 | 4.6 | Active | – | – | 90 | 55
9 | CC[C@]1(O)c2cc3n(c(=O)c2COC(=O)[C@@H]1OC(C)=O)Cc1cc2cc(OC)ccc2nc1-3 | 4.4 | 4.7 | Active | – | – | – | –
10 | CC[C@]1(O)c2cc3n(c(=O)c2COC(=O)[C@@H]1O)Cc1cc2ccccc2nc1-3 | 49.3 | 16.8 | Active | Stable | Stable | – | –
11 | CCc1c2c(nc3ccc(O)cc13)-c1cc3c(c(=O)n1C2)COC(=O)[C@]3(O)CC | – | – | Active | – | – | – | –
